The values that follow come from patent publication US11504410B2, “Neuroprotection and neuroregeneration by pterostilbene and compositions thereof” (THERAPEUTIC SOLUTIONS INTERNATIONAL, INC., priority 2020, dated 2022).

Data set [1] deals with classical complement activation pathway. Particulars: 15 U intravenously, cited from earlier work.
Data set [2] has the same test system. Particulars: cited from earlier work.
Data set [3] in a line: Relative bioavailability of pterostilbene. The data set is classed as in vivo. As to conditions: compared with creatine monohydrate. The text has this:
Without being bound by any particular theory, due to its improved solubility, pterostilbene is also expected to have better oral absorption properties compared to various other neuroprotectants. As used herein, “bioavailability” refers to the rate and amount of a drug or supplement that reaches the systemic circulation of a patient following administration of the drug or supplement. […] The terms “treatment,” “treating,” and “treat, are used herein to refer generally to obtaining a desired pharmacological and/or physiological effect. The effect may be prophylactic in terms of completely or partially preventing a disease or symptom thereof and/or may be therapeutic in terms of a partial or complete stabilization or cure for a disease and/or adverse effect attributable to the disease. “Treatment” as used herein covers any treatment of a disease in a subject, and includes: (a) preventing the disease or symptom from occurring in a subject which may be predisposed to the disease or symptom, but has not yet been diagnosed as having it; (b) inhibiting the disease symptom, i.e., arresting its development; or (c) relieving the disease symptom, i.e., causing regression of the disease or symptom.

Regarding “C1-INH: C1-esterase inhibitor, inhibits the classical complement activation pathway”, in data set [1] (48 hours after ischemia), the “improvement of focal neurologic deficits” value was 54%, the “improvement of general neurologic deficits” value is reported as 36% and the “infarct volume of total brain” value is 6.69%+/−2.93%. In addition, the “neutral red staining in cortex, hippocampus, and striatum” value in data set [1] is on record as “strong protective effect”. In data set [2] (rat, in vivo), the “mean arterial blood pressure (MABP) and arterial blood gases” value is “unaffected by the treatment”. Moreover, the “regional cerebral blood flow (rCBF)” value in data set [2] (rats, after occlusion, versus vehicle) was “No difference was noted between experimental groups”. In addition, in data set [2] (rats, infusion over 30 min after occlusion, evaluated after 5 days survival), the “reduction of infarct volume” value is 72%.
On to `COc1cc(/C=C/c2ccc(O)cc2)cc(OC)c1` [pterostilbene], for which the “relative bioavailability greater than creatine monohydrate” value in data set [3] is listed as “at least 50%”.
